US20160374975A1, “COMPOSITION FOR TREATMENT OF NAFLD” (Pronova BioPharma Norge AS, priority 2015, published 2016)

Legend:
HepG2 cells = experiment: Intracellular lipid accumulation in steatic HepG2 cells (in vitro model of NAFLD), oil red O staining, OD 490 nm; format: cell-based, human; details: steatic HepG2 cells treated with EPA/DHA, PCB 153 final concentration 50 μM, 24 hours at 37° C., versus DMSO alone
Protocol: Palmitic (C16:0) and oleic (C18:1) acids are the most abundant fatty acids in liver triglycerides in both normal subjects and patients with NAFLD. The human hepatocyte-derived cell line HepG2 cells were seeded in a 96 well plate at a density of 5000 cells/well on Day 1. […] Intracellular accumulation of lipids was detected and quantified by oil red O staining using spectrophotometry at wavelength 490 nm. Oil red O color intracellular lipids droplets after cell fixation with paraformaldehyde. Absence of cell death was confirmed using a colometric lactate dehydrogenase (LDH) assay. Lactate dehydrogenase (LDH) is a cytosolic enzyme present in many different types of cells. When the plasma membrane is damaged, LDH is released into cell culture media. The released LDH was quantified by a coupled enzymatic reaction using a LDH cytotoxicity kit, and following the procedure according to the manufacture's instruction.
To assess the effect of n-3 PUFA on experimental NAFLD, the HepG2cells were treated with EPA and DHA at a concentration of 100 μM (1:1), or with fatty acids-free bovine serum albumin (BSA), as a control, together with 1 mM Oleic/Palmitic acid for 24 hours. […] Intracellular accumulation of lipids was detected and quantified by oil red O staining using spectrophotometry at wavelength 490 nm. […]

male C57BL6/J mice = details: PCB 153 exposure in high-fat-fed mice; not seen with HFD alone or PCB 153 alone; cited from earlier work
mice = details: HFD+PCB 153 treated mice compared with HFD treatment alone; cited from earlier work

Question: Which “Effect on the benefit of n-3 PUFA (EPA/DHA) on development of steatosis (intracellular lipids, oil red O)” value (HepG2 cells) does the source give for `Clc1cc(Cl)c(-c2cc(Cl)c(Cl)cc2Cl)cc1Cl` [PCB 153, polychlorinated biphenyl 153] here?
Answer: diminish the beneficial effect

Question: And the “Visceral adiposity, hepatic steatosis, and plasma adipokines” value (male C57BL6/J mice)?
Answer: increased

Question: And the “Reduction of hepatic glutathione” value (mice)?
Answer: 6 fold
